Data taken from patent US20170107212A1, “NOVEL COMPOUNDS” (Bayer Pharma Aktiengesellschaft, priority 2014, published 2017).
pIC50: −log10 of the molar value.

Tests used:
[1] = tested on: constitutive active colorectal cancer cell (CRC) Wnt pathway, HCT116 TOPFlash; experiment: Cellular reporter assay, HCT116 Super TopFlash (constitutive active Wnt pathway), luciferase expression; format: cell-based; conditions: Homo sapiens, HCT-116, 36 h, HCT116 Super TopFlash reporter cells, 36 hours incubation, dilution series 50 μM to 15 nM
Method in brief: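 HCT116 cells stably carrying Super TopFlash (β-catenin ΔS45, constitutive Wnt) run in parallel with FOP control line; compounds 50 μM to 15 nM (3.16-fold) in CAFTY buffer pH 7.4 with 2 mM Ca2+, 0.01% BSA, 36 h at 37 °C. Luciferase luminescence read as Wnt activity.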

HCT116 FOPFlash = experiment: Control reporter assay, HCT116 FOP control vector (non-functional TCF elements), luciferase expression; format: cell-based; conditions: Homo sapiens, HCT-116, 36 h, HCT116 FOP control reporter cells, 36 hours incubation, dilution series 50 μM to 15 nM
Method in brief: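 Stable HCT116 cells carrying FOP vector (randomized non-functional TCF sites) plus pcDNA3, run in parallel with TOP line; compounds 50 μM to 15 nM (3.16-fold steps) added in CAFTY buffer pH 7.4 with 2 mM Ca2+, 0.01% BSA. Incubated 36 h at 37 °C, 5% CO2; luciferase luminescence read.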

## O=C(CN1CCOCC1)Nc1cc(C(=O)Nc2nnc(-c3cncnc3)s2)ccc1OC(F)(F)F [Example 69, 3-[(morpholin-4-ylacetyl)amino]-N-[5-(pyrimidin-5-yl)-1,3,4-thiadiazol-2-yl]-4-(trifluoromethoxy)benzamide]
[1]
  pIC50: 5.61
HCT116 FOPFlash
  pIC50: ≤ 4.30

## CN1CCN(CC(=O)Nc2cc(C(=O)Nc3nnc(-c4cnccc4C(F)(F)F)s3)ccc2OC(F)(F)F)CC1 [Example 70, 3-{[(4-methylpiperazin-1-yl)acetyl]amino}-4-(trifluoromethoxy)-N-{5-[4-(trifluoromethyl)pyridin-3-yl)-1,3,4-thiadiazol-2-yl}benzamide]
[1]
  pIC50: 5.29
HCT116 FOPFlash
  pIC50: ≤ 4.30

## Cc1ccncc1-c1nnc(NC(=O)c2ccc(OC(F)(F)F)c(NC(=O)CN3CCOCC3)c2)s1 [Example 71, N-[5-(4-methylpyridin-3-yl)-1,3,4-thiadiazol-2-yl]-3-[(morpholin-4-ylacetyl)amino]-4-(trifluoromethoxy)benzamide]
[1]
  pIC50: 5.33
HCT116 FOPFlash
  pIC50: ≤ 4.30

## O=C(CN1CCOCC1)Nc1cc(C(=O)Nc2nnc(-c3cncnc3)s2)ccc1OC1CC1 [Example 72, 4-(cyclopropyloxy)-3-[(morpholin-4-ylacetyl)amino]-N-[5-(pyrimidin-5-yl)-1,3-4-thiadiazol-2-yl)benzamide]
[1]
  pIC50: 5.89
HCT116 FOPFlash
  pIC50: ≤ 4.30

## COCCOc1ccc(C(=O)Nc2nnc(-c3cnccc3C)s2)cc1NC(=O)CN1CCN(C)CC1 [Example 73, 4-(2-methoxyethoxy)-3-{[(4-methylpiperazin-1-yl)acetyl]amino}-N-[5-(4-methylpyridin-3-yl)-1,3,4-thiadiazol-2-yl]benzamide]
[1]
  pIC50: 6.00
HCT116 FOPFlash
  pIC50: ≤ 4.30

## COCCCOc1ccc(C(=O)Nc2nnc(-c3cnccc3C)s2)cc1NC(=O)CN1CCOCC1 [Example 74, 4-(3-methoxypropoxy)-N-[5-(4-methylpyridin-3-yl)-1,3,4-thiadiazol-2-yl)-3-[(morpholin-4-ylacetyl)amino]benzamide]
[1]
  pIC50: 5.43
HCT116 FOPFlash
  pIC50: ≤ 4.30

## O=C(CN1CCOCC1)Nc1cc(C(=O)Nc2ccc(-c3cncnc3)cn2)ccc1OC1CC1 [Example 75, 4-(cyclopropyloxy)-3-[(morpholin-4-ylacetyl)amino]-N-[5-(pyrimidin-5-yl)pyridin-2-yl]benzamide]
[1]
  pIC50: 7.43
HCT116 FOPFlash
  pIC50: ≤ 4.30

## O=C(CN1CCOCC1)Nc1cc(C(=O)Nc2cnc(-c3cccnc3)s2)ccc1OC1CC1 [Example 76, 4-(cyclopropyloxy)-3-[(morpholin-4-ylacetyl)amino]-N-[2-(pyridin-3-yl)-1,3-thiazol-5-yl]benzamide]
[1]
  pIC50: 6.81
HCT116 FOPFlash
  pIC50: ≤ 4.30

## CN1CCN(CC(=O)Nc2cc(C(=O)Nc3nnc(-c4cccnc4)s3)c(F)cc2OC(F)(F)F)CC1 [Example 77, 2-fluoro-5-{[(4-methylpiperazin-1-yl)acetyl]amino}-N-[5-(pyridin-3-yl)-1,3,4-thiadiazol-2-yl]-4-(trifluoromethoxy)benzamide]
[1]
  pIC50: 6.74
HCT116 FOPFlash
  pIC50: ≤ 4.30

## Cc1ccncc1-c1nnc(NC(=O)c2cc(NC(=O)CN3CCN(C)CC3)c(OC(F)(F)F)cc2F)s1 [Example 78, 2-fluoro-5-{[(4-methylpiperazin-1-yl)acetyl]amino}-N-[5-(4-methylpyridin-3-yl)-1,3,4-thiadiazol-2-yl]-4-(trifluoromethoxy)benzamide]
[1]
  pIC50: 6.62
HCT116 FOPFlash
  pIC50: ≤ 4.30

## Cc1ccncc1-c1nnc(NC(=O)c2ccc(OC3COC3)c(NC(=O)CN3CCOCC3)c2)s1 [Example 79, N-[5-(4-methylpyridin-3-yl)-1,3,4-thiadiazol-2-yl]-3-[(morpholin-4-ylacetyl)amino]-4-(oxetan-3-yloxy)benzamide]
[1]
  pIC50: 6.62
HCT116 FOPFlash
  pIC50: ≤ 4.30

## O=C(CN1CCOCC1)Nc1cc(C(=O)Nc2nnc(-c3ccccn3)s2)ccc1OC(F)(F)F [Example 80, 3-[{morpholin-4-ylacetyl)amino]-N-[5-(pyridin-2-yl)-1,3,4-thiadiazol-2-yl]-4-(trifluoromethoxy)benzamide]
[1]
  pIC50: 4.56
HCT116 FOPFlash
  pIC50: ≤ 4.30
